Experimental data from patent US5730962A, “Depigmenting cosmetic or dermatologic composition containing a benzofuran derivative and its use in depigmentating skin” (L'Oreal, priority 1991, dated 1998).

Test system: fungus tyrosinase
Test: in vitro inhibition test of the activity of tyrosinase (dopachrome formation, 475 nm)
Type: biochemical
Details: inhibitor at 50 molar percent relative to tyrosine; 0.1M phosphate buffer pH 6.5; 25° C.; optical density at 475 nm at plateau
Text: Certain ones of the benzofuran derivatives have been comparatively studied with respect to hydroquinone, at molar equivalent amounts, in the in vitro inhibition test of the activity of tyrosinase.
According to this test the amount of dopachrome formed during the course of the reaction chain for the transformation of tyrosine into melanins is followed by visible spectrometry at 475 nm. These reactions are catalyzed, in vitro, by fungus tyrosinase, in the presence of a reducing co-substrate(for example, L-dopa in a small amount) to initiate the hydroxylation reaction of L-tyrosine into L-dopa, which is then catalytically oxidized into dopaquinone, then into dopachrome, produced intermediate before the non-enzymatic oxidation reactions terminating in the formation of melanins.
The concentration of dopachrome formed during the course of time in the presence and in the absence of the inhibitor is then measured.
The concentrations of inhibitors are fixed at 50 molar percent relative to the tyrosine concentration in the reaction medium.
The inhibition effect is expressed by the reduction of the maximum amount of dopachrome formed (optical density value at 475 nm read at the plateau of the curve) relative to the amount obtained in the absence of inhibitor.
A--0.1M phosphate buffer pH=6.5 (TWEEN 20 at 1%)
B--L-tyrosine mother solution at 2×10^-3 M in A
C--L-dopa mother solution at 10^-4 M in A
D--Fungus tyrosinase mother solution at 2,400 units/ml in A
E--Inhibitor mother solution at 10^-2 M in A (solutions C and D are prepared the same day).
Homogenize and equilibrate at 25° C.
rapidly mix and observe the kinetics by the measurement of the absorbance at 475 nm as a function of time.

SMILES	% inhibitor (reduction of the maximum amount of dopachrome formed relative to the amount obtained in the absence of inhibitor)
Oc1ccc2c(c1)OCC2	66%
Oc1ccc2occc2c1	56%
Oc1ccc2ccoc2c1	54%
Oc1ccc(O)cc1 [hydroquinone, reference compound]	33%
